# Experiments:
# [1] = test system: cerebral ischemia induced in rats (MCAO); assay: Animal cerebral infarct assay (Middle Cerebral Artery Occlusion, MCAO); assay type: in vivo, rat; conditions: for reduce infarct size: rat; for total infarct volume relative to control animals / total ischemic damage relative to control animals: administered I.V. at the time of MCAO; for cerebral edema relative to control animals: administered at the time of MCAO; for cerebral edema relative to controls / total infarct volume relative to controls / total ischemic damage relative to controls: administered at the time of reperfusion
# Text: This assay is used to assess the efficacy of the test agents in protecting the brain against necrosis following cerebral ischemia induced in rats. Middle Cerebral Artery Occlusion (MCAO) is a widely used technique to induce transient focal cerebral ischemia in animal models. […] Furthermore, this model accurately represents the involvement of middle cerebral artery (MCA), the most affected vessel in human stroke, and also allows reperfusion as it happens in humans. MCAO by a two-hour occlusion is used to produce the maximum size of cortical infarction without increased mortality at twenty-four hours.
# Male Wistar rats (Hadan, Ind.) weighing 300-350 g were allowed free access to water and commercial rodent diet under standard laboratory conditions. The room temperature was maintained at 20-23° C. and room illumination was on a 12/12-hour light/dark cycle. The rats were acclimatized to the laboratory environment 5 to 7 days prior to the study.
# Before surgery, the animals were fasted overnight, but had free access to water. The-rats were anesthetized with 3.0% isoflurane (Aerrane, Front Dodge, Iowa) in […] and the animal's neck was shaved and sterilized before the operation. The animals were subjected to two hours MCAO using a modified intraluminal filament technique. A midline incision on the ventral part of the neck was made to expose external and internal carotid arteries. The right external and common carotid arteries were ligated by a suture (silk 5/0, Carlisle Laboratories, Farmers Branch, Tex.) and the right internal artery was temporarily ligated by a microvascular clip (Fine Science Tool Inc., Foster City, Calif.). A small incision was made in the common carotid artery and a nylon filament, its tip rounded by heating, prepared from a fishing line (Stren Fishing Lines, Wilmington, Del.) was inserted from the right common carotid artery. The filament was advanced into the internal carotid artery 18-20 mm from the point of bifurcation of internal and external arteries and a suture was tightly ligated around the filament. Two hours post occlusion, the animals were re-anesthetized to allow reperfusion for the remaining of the experiment by removal of the filament.
# Anesthesia was maintained by inhalation of 3.0% isoflurane in […] throughout the entire procedure. The exterior site of the right femoral vein was shaved and sterilized prior to surgery. A 3 cm incision was made in the right groin region and the femoral vein was isolated. A small incision was made on the femoral vein temporarily ligated with a microvascular clip to introduce and advance a polyethylene (PE-50) catheter (Becton. Dickinson and Co., Sparks, Md.). The catheter was secured in place with suture (silk 5/0, Cailisle Laboratories, Farmers Branch, Tex.). The other end of the catheter was attached to a syringe filled with the heparinized saline for the bolus injection. Using a hemostat a pocket was made subcutaneously on the back of the animal so the PE catheter can be brought up to the exteriorization point at the nape of the neck for either a bolus injection or a continuous injection by an osmotic pump.
# A standard rat gavage tube (Popper & Sons Inc, NY) was attached to a 3-cc hypodermic syringe. The animal was held by the shoulder in a vertical position. The feeding tube was placed into the mouth then advanced until it reached the stomach (the approximate insertion length of the tube was measured prior to the feeding). The content of the syringe was slowly delivered, and then the tube is withdrawn.
# The animals are sacrificed by CO2 asphyxiation (dry ice) 24 hours post-MCAO. The skull is removed to expose the brain using a small bone cutter and starting from the base of the skull. The brain is removed quickly, rinsed in a chilled saline and placed on a rat brain tissue slicer (ASI instrument, Mich.). Seven 2-mm thick coronal slices are cut from each brain using razor blades. […]
# [2] = Evans resorption sterility test for vitamin E; cited from earlier work
# [3] = 6 mg/kg, administered IV at MCAO
# [4] = 0.60 mg/kg, administered IV at MCAO
# [5] = administered at reperfusion (FIG. 2)
# [6] = administered at the time of MCAO (FIG. 1)
# [7] = at the same concentration, MCAO assay
Structure (SMILES),"reduce infarct size [1, 3] [%]","reduce infarct size [1, 4] [%]","reduce infarct size ([1]; 10.00 mg/kg by gavage, 3 hours pre-MCAO) [%]",total infarct volume relative to control animals [1],total ischemic damage relative to control animals [1],"total infarct size [1, 5]",cerebral edema relative to control animals [1],"total infarct size [1, 6]",cerebral edema relative to controls [1],total infarct volume relative to controls [1],total ischemic damage relative to controls [1],"reduction of tissue edema compared with alpha- or delta-tocopherol [1, 7]","reduction of total infarct volume compared with alpha- or delta-tocopherol [1, 7]",reduction of total infarct volume compared with alpha-tocopherol ([1]; MCAO assay),activity relative to natural alpha-tocopherol [2],"decreased neuronal damage ([1]; drug ranges 0.1-5 mg/kg, IV at MCAO)"
"Cc1c(C)c2c(c(C)c1O)CC[C@@](C)(CCC[C@H](C)CCC[C@H](C)CCCC(C)C)O2 (relative stereo) [alpha-tocopherol, [2R-2R*(4R*,8R*)]-3,4-dihydro-2,5,7,8-tetramethyl-2-(4,8,12-trimethyltridecyl)-2H-1-benzopyran-6-ol, reference compound]",42,,,,,,,,,,,,,,,
"Cc1c(O)cc2c(c1C)OC(C)(CCCC(C)CCCC(C)CCCC(C)C)CC2 (centres unmarked) [gamma-tocopherol, 3,4-dihydro-2,7,8-trimethyl-2-(4,8,12-trimethyltridecyl)-2H-1-benzyopyran-6-ol]",82,81,77,significantly reduced,significantly reduced,able to reduce total infarct size,significantly reduced,able to reduce total infarct size,reduction,reduction,reduction,more effective,more effective,,,
"Cc1cc(O)cc2c1O[C@](C)(CCC[C@H](C)CCC[C@H](C)CCCC(C)C)CC2 (relative stereo) [delta-tocopherol, [2R-[2R*(4R*,8R*)]]-3,4-dihydro-2,8-dimethyl-2-(4,8,12-trimethyltridecyl)-2H-1-benzo-pyran-6-ol]",,52,,,,,,,,,,,,more effective,one hundredth,
"Cc1c(O)cc2c(c1C)OC(C)(CCC(=O)O)CC2 (stereo not drawn) [gamma-CEHC, 2,7,8-trimethyl-2-(β-carboxy-ethyl)-6-hydroxy chroman]",,,,significantly reduced,significantly reduced,able to reduce total infarct size,reduced,able to reduce total infarct size,reduction,reduction,reduction,,,,,50-65%

# — patent publication US7034054B2, “Methods for the prevention and treatment of cerebral ischemia using non-alpha tocopherols” (Galileo Pharmaceuticals, Inc., priority 2000, dated 2006)
